Results reported in US10323036B2 (Nimbus Lakshmi, Inc., priority 2016, dated 2019).
Where two headings read alike, the source gives them in different places.

Biological target: human TYK2 (JH2domain-pseudokinase) (Homo sapiens (Human), UniProt P29597)
Assay: TYK2 JH2 Domain Binding Assay (KINOMEscan)
Conditions: read-out: JH2 Kd
[1] = Table 5, Tyk2 JH2 Domain Binding Assay

Chain of human TYK2 (JH2domain-pseudokinase) (P29597 556-888): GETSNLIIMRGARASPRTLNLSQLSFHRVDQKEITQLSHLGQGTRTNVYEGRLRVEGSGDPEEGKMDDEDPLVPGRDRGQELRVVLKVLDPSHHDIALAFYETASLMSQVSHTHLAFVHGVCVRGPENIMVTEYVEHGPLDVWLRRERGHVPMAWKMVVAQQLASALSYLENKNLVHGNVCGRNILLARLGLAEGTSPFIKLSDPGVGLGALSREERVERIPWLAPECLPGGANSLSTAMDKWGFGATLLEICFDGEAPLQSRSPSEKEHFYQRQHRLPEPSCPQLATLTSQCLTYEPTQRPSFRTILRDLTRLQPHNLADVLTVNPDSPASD

Row | Kd (Table 4, JH2 binding assay) [pM] | Kd [1] [pM] | Structure (SMILES)
1 | 500 to 1000 |  | COc1c(F)cccc1Nc1cc(NC(=O)C2CC2)nc2[nH]n(C)c(=O)c12 [Compound I-48, N-(4-((3-fluoro-2-methoxyphenyl)amino)-2-methyl-3-oxo-2,3-dihydro-1H-pyrazolo[3,4-b]pyridin-6-yl)cyclopropanecarboxamide]
2 | 100 to 500 |  | Cn1[nH]c2nc(Nc3cccc(C(F)(F)F)n3)cc(Nc3ccccc3S(C)(=O)=O)c2c1=O [Compound I-113, 2-methyl-4-((2-(methylsulfonyl)phenyl)amino)-6-((6-(trifluoromethyl)pyridin-2-yl)amino)-1,2-dihydro-3H-pyrazolo[3,4-b]pyridin-3-one]
3 | 100 to 500 |  | COc1c(Nc2cc(Nc3cccc(N4CC(OC)C4)n3)nc3[nH]n(C)c(=O)c23)cccc1-c1nnn(C)n1 [Compound I-63, 4-((2-methoxy-3-(2-methyl-2H-tetrazol-5-yl)phenyl)amino)-6-((6-(3-methoxyazetidin-1-yl)pyridin-2-yl)amino)-2-methyl-1,2-dihydro-3H-pyrazolo[3,4-b]pyridin-3-one]
4 | 100 to 500 |  | Cn1[nH]c2nc(Nc3ccccn3)cc(Nc3ccccc3S(C)(=O)=O)c2c1=O [Compound I-142, 2-methyl-4-((2-(methylsulfonyl)phenyl)amino)-6-(pyridin-2-ylamino)-1,2-dihydro-3H-pyrazolo[3,4-b]pyridin-3-one]
5 | > 10000 |  | CCc1ncc(Nc2cc(Nc3cccc(F)c3OC)c3c(=O)n(C)[nH]c3n2)nc1C#N [Compound I-148, 3-ethyl-6-((4-((3-fluoro-2-methoxyphenyl)amino)-2-methyl-3-oxo-2,3-dihydro-1H-pyrazolo[3,4-b]pyridin-6-yl)amino)pyrazine-2-carbonitrile]
6 | 500 to 1000 |  | COc1c(Cl)cccc1Nc1cc(NC(=O)C2CC2)nc2[nH]n(C)c(=O)c12 [Compound I-49, N-(4-((3-chloro-2-methoxyphenyl)amino)-2-methyl-3-oxo-2,3-dihydro-1H-pyrazolo[3,4-b]pyridin-6-yl)cyclopropanecarboxamide]
7 | < 100 |  | COc1c(Nc2cc(Nc3cc(C)c(F)cn3)nc3[nH]n(C)c(=O)c23)cccc1-c1nnn(C)n1 [Compound I-8, 6-((5-fluoro-4-methylpyridin-2-yl)amino)-4-((2-methoxy-3-(2-methyl-2H-tetrazol-5-yl)phenyl)amino)-2-methyl-1,2-dihydro-3H-pyrazolo[3,4-b]pyridin-3-one]
8 | > 10000 |  | COc1c(Cl)cccc1Nc1cc(Nc2ccc(C(F)F)c(C#N)n2)nc2[nH]n(C)c(=O)c12 [Compound I-156, 6-((4-((3-chloro-2-methoxyphenyl)amino)-2-methyl-3-oxo-2,3-dihydro-1H-pyrazolo[3,4-b]pyridin-6-yl)amino)-3-(difluoromethyl)picolinonitrile]
9 | 1000 to 10000 |  | COc1c(Cl)cccc1Nc1cc(Nc2ccn(C)n2)nc2[nH]n(C)c(=O)c12 [Compound I-136, 4-((3-chloro-2-methoxyphenyl)amino)-2-methyl-6-((1-methyl-1H-pyrazol 3-yl)amino)-1,2-dihydro-3H-pyrazolo[3,4-b]pyridin-3-one]
10 |  | 10000 to 100000 | CCn1cc(-c2cccc(-c3nnn(C)n3)c2OC)c2cc(NC(=O)C3CC3)ncc21 [XVI-6, N-(1-ethyl-3-(2-methoxy-3-(2-methyl-2H-tetrazol-5-yl)phenyl)-1H-pyrrolo[2,3-c]pyridin-5-yl)cyclopropanecarboxamide]
11 |  | 10000 to 100000 | COc1c(Nc2cc(NC(=O)C3CC3)ncc2-c2cccnn2)cccc1-c1ncn(C)n1 [VIII-11, N-(4-((2-methoxy-3-(1-methyl-1H-1,2,4-triazol-3-yl)phenyl)amino)-5-(pyridazin-3-yl)pyridin-2-yl)cyclopropanecarboxamide]
12 | > 10000 |  | COc1c(C#N)cccc1Nc1cc(Nc2ccc(C)cn2)nc2[nH]n(C)c(=O)c12 [Compound I-34]
13 | < 100 |  | COc1c(Nc2cc(Nc3ccc(C#N)cn3)nc3[nH]n(C)c(=O)c23)cccc1-c1nnn(C)n1 [Compound I-12, 6-((4-((2-methoxy-3-(2-methyl-2H-tetrazol-5-yl)phenyl)amino)-2-methyl-3-oxo-2,3-dihydro-1H-pyrazolo[3,4-b]pyridin-6-yl)amino)nicotinonitrile]
14 | 1000 to 10000 |  | COc1c(Cl)cccc1Nc1cc(Nc2ccc(C)nn2)nc2[nH]n(C)c(=O)c12 [Compound I-105, 4-((3-chloro-2-methoxyphenyl)amino)-2-methyl-6-((6-methylpyridazin-3-yl)amino)-1,2-dihydro-3H-pyrazolo[3,4-b]pyridin-3-one]
15 | 500 to 1000 |  | Cc1ccc(Nc2cc(Nc3ccc(Cl)cc3S(C)(=O)=O)c3c(=O)n(C)[nH]c3n2)nc1C(F)(F)F [Compound I-208, 4-((4-chloro-2-(methylsulfonyl)phenyl)amino)-2-methyl-6-((5-methyl-6-(trifluoromethyl)pyridin-2-yl)amino)-1,2-dihydro-3H-pyrazolo[3,4-b]pyridin-3-one]
16 | 100 to 500 |  | COc1c(Nc2cc(Nc3ccc(N4CCCCC4)cn3)nc3[nH]n(C)c(=O)c23)cccc1-c1ncn(C)n1 [Compound I-24, 4-((2-methoxy-3-(1-methyl-1H-1,2,4-triazol-3-yl)phenyl)amino)-2-methyl-6-((5-(piperidin-1-yl)pyridin-2-yl)amino)-1,2-dihydro-3H-pyrazolo[3,4-b]pyridin-3-one]
17 | 1000 to 10000 |  | COc1c(F)cccc1Nc1cc(Nc2ccc(C)cn2)nc2[nH]n(C)c(=O)c12 [Compound I-84, 4-((3-fluoro-2-methoxyphenyl)amino)-2-methyl-6-((5-methylpyridin-2-yl)amino)-1,2-dihydro-3H-pyrazolo[3,4-b]pyridin-3-one]
18 | < 100 |  | Cn1[nH]c2nc(Nc3cccc(C#N)n3)cc(Nc3ccccc3S(C)(=O)=O)c2c1=O [Compound I-112, 6-((2-methyl-4-((2-(methylsulfonyl)phenyl)amino)-3-oxo-2,3-dihydro-1H-pyrazolo[3,4-b]pyridin-6-yl)amino)picolinonitrile]
19 | < 100 |  | COc1c(Nc2cc(Nc3ccn(C)n3)nc3[nH]n(C)c(=O)c23)cccc1-c1nnn(C)n1 [Compound I-13, 4-((2-methoxy-3-(2-methyl-2H-tetrazol-5-yl)phenyl)amino)-2-methyl-6-((1-methyl-1H-pyrazol-3-yl)amino)-1,2-dihydro-3H-pyrazolo[3,4-b]pyridin-3-one]
20 | 500 to 1000 |  | COc1c(Cl)cccc1Nc1cc(Nc2cnc(C(C)(C)OC)c(C#N)n2)nc2[nH]n(C)c(=O)c12 [Compound I-155, 6-((4-((3-chloro-2-methoxyphenyl)amino)-2-methyl-3-oxo-2,3-dihydro-1H-pyrazolo[3,4-b]pyridin-6-yl)amino)-3-(2-methoxypropan-2-yl)pyrazine-2-carbonitrile]
21 |  | 100 to 1000 | COCc1ccnc(Nc2cc(Nc3cccc(-c4nnn(C)n4)c3OC)c(-c3ncc(Cl)s3)cn2)c1 [VIII-17, 5-(5-chlorothiazol-2-yl)-N4-(2-methoxy-3-(2-methyl-2H-tetrazol-5-yl)phenyl)-N2-(4-(methoxymethyl)pyridin-2-yl)pyridine-2,4-diamine]
22 | 500 to 1000 |  | Cn1[nH]c2nc(Nc3cccc(C#N)n3)cc(Nc3ccc(Cl)cc3S(C)(=O)=O)c2c1=O [Compound I-203, 6-((4-((4-chloro-2-(methylsulfonyl)phenyl)amino)-2-methyl-3-oxo-2,3-dihydro-1H-pyrazolo[3,4-b]pyridin-6-yl)amino)picolinonitrile]
23 | 100 to 500 |  | COc1c(Nc2cc(Nc3ccc(C)cn3)nc3[nH]n(C)c(=O)c23)cccc1-c1nnn(C)n1 [Compound I-3, 4-((2-methoxy-3-(2-methyl-2H-tetrazol-5-yl)phenyl)amino)-2-methyl-6-((5-methylpyridin-2-yl)amino)-1,2-dihydro-3H-pyrazolo[3,4-b]pyridin-3-one]

Row | Structure (SMILES) | Kd (Table 4, JH2 binding assay) [pM] | Kd [1] [pM]
24 | COc1cc(C2CCC2)ccc1Nc1cc(NC(=O)C2CC2)nc2[nH]n(C)c(=O)c12 [Compound I-51] | > 10000 | 
25 | COc1c(Nc2cc(NC(=O)C3CC3)nc3[nH]n(C)c(=O)c23)cccc1C(=O)O [Compound I-231, 3-((6-(cyclopropanecarboxamido)-2-methyl-3-oxo-2,3-dihydro-1H-pyrazolo[3,4-b]pyridin-4-yl)amino)-2-methoxybenzoic acid] | 1000 to 10000 | 
26 | CCNC(=O)c1ccc(Nc2cc(NC(=O)C3CC3)nc3[nH]n(C)c(=O)c23)c(OC)c1 [Compound I-114, 4-((6-(cyclopropanecarboxamido)-2-methyl-3-oxo-2,3-dihydro-1H-pyrazolo[3,4-b]pyridin-4-yl)amino)-N-ethyl-3-methoxybenzamide] | 1000 to 10000 | 
27 | CN(c1ccccc1Nc1cc(NC(=O)[C@@H]2C[C@@H]2F)nc2[nH]n(C)c(=O)c12)S(C)(=O)=O [Compound I-216, (1S,2S)-2-fluoro-N-(2-methyl-4-((2-(N-methylmethylsulfonamido)phenyl)amino)-3-oxo-2,3-dihydro-1H-pyrazolo[3,4-b]pyridin-6-yl)cyclopropane-1-carboxamide] | 100 to 500 | 
28 | COc1c(Nc2cc(Nc3ccc(N4CCCCC4)cn3)nc3[nH]n(C)c(=O)c23)cccc1-c1ccn(C)n1 [Compound I-124, 4-((2-methoxy-3-(1-methyl-1H-pyrazol-3-yl)phenyl)amino)-2-methyl-6-((5-(piperidin-1-yl)pyridin-2-yl)amino)-1,2-dihydro-3H-pyrazolo[3,4-b]pyridin-3-one] | 1000 to 10000 | 
29 | COCc1ccc(Nc2cc(NC(=O)C3CC3)nc3[nH]n(C)c(=O)c23)c(N(C)S(C)(=O)=O)c1 [Compound I-218] | < 100 | 
30 | Cn1[nH]c2nc(Nc3cccc(C(F)(F)F)n3)cc(Nc3ccc(C4CC4)cc3S(C)(=O)=O)c2c1=O [Compound I-215, 4-((4-cyclopropyl-2-(methylsulfonyl)phenyl)amino)-2-methyl-6-((6-(trifluoromethyl)pyridin-2-yl)amino)-1,2-dihydro-3H-pyrazolo[3,4-b]pyridin-3-one] | 100 to 500 | 
31 | CN(c1ccccc1Nc1cc(NC(=O)C2CC2)nc2[nH]n(C)c(=O)c12)S(C)(=O)=O [Compound I-129, N-(2-methyl-4-((2-(N-methylmethylsulfonamido)phenyl)amino)-3-oxo-2,3-dihydro-1H-pyrazolo[3,4-b]pyridin-6-yl)cyclopropanecarboxamide] | 100 to 500 | 
